# From patent US11261453B2, “Cells expressing apolipoprotein E and uses thereof” (Whitehead Institute for Biomedical Research, priority 2014, dated 2022)
# Columns and labels:
# [1] = system: ApoE4-mediated toxicity; test: Compound test in ApoE4 hitox yeast strain (PDR1 and PDR3 deleted), optical density at A600 after 24 hours; format: cell-based, Saccharomyces cerevisiae; conditions: A600, FIG. 10
# Procedure: An ApoE4 hitox strain harboring 3-4 copies of the ApoE4 construct and with the drug-pump transcription factors PDR1 and PDR 3 deleted was used in this experiment. Cells were grown in raffinose; cells were diluted into galactose medium (to initiate expression of the expression construct). Test compounds were added to the cultures at various concentrations ranging from 0.25 μM to 32.0 μM; cells were grown for 24 hours after addition of the compounds, and the optical densities were then read at A600.
# [2] = system: ApoE4-mediated toxicity; conditions: known from other experiments; cited from earlier work
# [3] = system: Ste3 endocytosis to the vacuole; test: Ste3-mKate2 endocytosis assay, fluorescence microscopy; format: cell-based, Saccharomyces cerevisiae; conditions: 6-8 hours of induction with galactose, FIG. 13
# From the text: The effect of ApoE on endocytosis in yeast was further analyzed using a Ste3-mKate2 assay. Ste3 is a yeast G-protein coupled receptor (GPCR) that natively undergoes endocytosis from the cell surface to the vacuole. When clathrin-mediated endocytosis is disrupted, Ste3 trafficking can be disrupted as well.
# The trafficking of Ste3 was observed using fluorescence microscopy by overexpressing a fluorescently-tagged (mKate2) version of Ste3 from a pAG423 galactose-inducible plasmid. The ApoE4 hitox strain described above was transformed with the pAG423-Ste3-mKate2 plasmid. In addition, yeast strains as described in Example 4 harboring expression constructs encoding human neurodegenerative disease-associated proteins alpha-synuclein (α-syn intox) or Aβ (Kar2ss-Aβ strain described in Treusch, S., et al., Science. (2011), 334:1241-5) were also transformed with the pAG423-Ste3-mKate2 plasmid. A strain transformed with a Gal-GFP plasmid served as a negative control. […] (FIG. 13).
molecule,measurement,setting,value
Oc1c(I)cc(Cl)c2cccnc12 [clioquinol],ability to reduce ApoE4-mediated toxicity,[1]; 0.25 μM to 32.0 μM,able to reduce ApoE4-mediated toxicity
same,concentrations at which ApoE4-mediated toxicity is reduced,[1],below 1.5 μM
same,toxicity of the compound itself to yeast,[2],becomes toxic to yeast at high concentrations
Aβ: human amyloid beta expressed in yeast (Kar2ss-Aβ strain),effect on Ste3 endocytosis,[3],disruption of Ste3 endocytosis
